Measured values from ChEMBL document CHEMBL1201862, “PubChem BioAssay data set” (2004).
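Growth conditions: 96-well plates. Treatment: test compound, 48 hours, 5 concentrations. Analysis: linear interpolation between bracketing concentrations; unreached endpoints set to highest concentration. Abbreviation: GI50, concentration required for 50% inhibition of growth.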 Activity calls are given as the source filed them. Rule as the data show it: active = GI50 up to about 1.1 µM and inactive = higher.

Tests used:
Assay in all cases: inhibition of tumour cell growth, NCI panel, 48 h
MOLT-4 = tested on: MOLT-4
M14 = tested on: M14
SK-MEL-28 = tested on: SK-MEL-28
SN12C = tested on: SN12C
LOX IMVI = tested on: LOX IMVI
HL-60 = tested on: HL-60
OVCAR-3 = tested on: OVCAR-3
CAKI-1 = tested on: CAKI-1
SK-MEL-2 = tested on: SK-MEL-2
SF-268 = tested on: SF-268
UO-31 = tested on: UO-31
SF-295 = tested on: SF-295
HT-29 = tested on: HT-29
SNB-19 = tested on: SNB-19
HCC 2998 = tested on: HCC 2998
U-251 = tested on: U-251
RPMI-8226 = tested on: RPMI-8226
NCI-H226 = tested on: NCI-H226
PC-3 = tested on: PC-3
MCF7 = tested on: MCF7

SMILES	GI50 (MOLT-4)	GI50 (M14)	GI50 (SK-MEL-28)	GI50 (SN12C)	GI50 (LOX IMVI)	GI50 (HL-60)	GI50 (OVCAR-3)	GI50 (CAKI-1)	GI50 (SK-MEL-2)	GI50 (SF-268)	GI50 (UO-31)	GI50 (SF-295)	GI50 (HT-29)	GI50 (SNB-19)	GI50 (HCC 2998)	GI50 (U-251)	GI50 (RPMI-8226)	GI50 (NCI-H226)	GI50 (PC-3)	GI50 (MCF7)
BrC1=CC=C2NCCCCCC/N=C3\C=CC(Br)=CC=C3NCCCCCC/N=C\2C=C1	> 25.5 µM (inactive)	> 25.5 µM (inactive)	> 25.5 µM (inactive)	> 25.5 µM (inactive)	> 25.5 µM (inactive)	> 25.5 µM (inactive)	> 25.5 µM (inactive)	> 25.5 µM (inactive)	> 25.5 µM (inactive)	> 25.5 µM (inactive)	> 25.5 µM (inactive)	> 25.5 µM (inactive)	> 25.5 µM (inactive)	> 25.5 µM (inactive)	> 25.5 µM (inactive)	> 25.5 µM (inactive)	> 25.5 µM (inactive)	> 25.5 µM (inactive)	–	–
N#CC1=C(Cl)NC(Cl)=C(C#N)C1c1c(Cl)cccc1Cl	32.5 µM (inactive)	38.8 µM (inactive)	35.2 µM (inactive)	24.7 µM (inactive)	17.3 µM (inactive)	19.6 µM (inactive)	25.1 µM (inactive)	55.6 µM (inactive)	58.3 µM (inactive)	30.4 µM (inactive)	49.4 µM (inactive)	41.7 µM (inactive)	31.4 µM (inactive)	27.9 µM (inactive)	24.1 µM (inactive)	16.3 µM (inactive)	22.5 µM (inactive)	> 100 µM (inactive)	–	–
Nc1nc2c(-c3ccc([N+](=O)[O-])cc3)nnn2c2ccccc12	> 100 µM (inactive)	> 100 µM (inactive)	> 100 µM (inactive)	> 100 µM (inactive)	> 100 µM (inactive)	> 100 µM (inactive)	29.6 µM (inactive)	> 100 µM (inactive)	> 100 µM (inactive)	> 100 µM (inactive)	> 100 µM (inactive)	62.1 µM (inactive)	> 100 µM (inactive)	17.5 µM (inactive)	> 100 µM (inactive)	17.9 µM (inactive)	> 100 µM (inactive)	> 100 µM (inactive)	–	–
CCc1cccc(CC)c1NC(=O)C1=C(C)NC(C)=C(C(=O)Nc2c(CC)cccc2CC)C1c1ccc([N+](=O)[O-])cc1	14.7 µM (inactive)	17.5 µM (inactive)	17.4 µM (inactive)	46.5 µM (inactive)	30.9 µM (inactive)	16.4 µM (inactive)	32.1 µM (inactive)	15.8 µM (inactive)	20 µM (inactive)	33.7 µM (inactive)	23.2 µM (inactive)	15.5 µM (inactive)	17.1 µM (inactive)	54.5 µM (inactive)	36.2 µM (inactive)	40.5 µM (inactive)	11.4 µM (inactive)	26.1 µM (inactive)	–	–
COC(=O)[C@@H]1CN(C(C)=O)C(=O)N1	> 100 µM (inactive)	> 100 µM (inactive)	> 100 µM (inactive)	> 100 µM (inactive)	> 100 µM (inactive)	> 100 µM (inactive)	> 100 µM (inactive)	> 100 µM (inactive)	> 100 µM (inactive)	> 100 µM (inactive)	> 100 µM (inactive)	> 100 µM (inactive)	> 100 µM (inactive)	> 100 µM (inactive)	> 100 µM (inactive)	> 100 µM (inactive)	> 100 µM (inactive)	> 100 µM (inactive)	> 100 µM (inactive)	–
CC1(C)CC23C(=O)N(c4ccccc4)C(Nc4ccccc4)=NC2=CC(C#N)=C(C#N)C3O1 (stereo not drawn)	29.3 µM (inactive)	> 100 µM (inactive)	> 100 µM (inactive)	34.8 µM (inactive)	64.4 µM (inactive)	27.4 µM (inactive)	> 100 µM (inactive)	23.2 µM (inactive)	61.5 µM (inactive)	> 100 µM (inactive)	18.6 µM (inactive)	46.7 µM (inactive)	26.9 µM (inactive)	89.9 µM (inactive)	67.1 µM (inactive)	> 100 µM (inactive)	30.4 µM (inactive)	26.4 µM (inactive)	–	–
O=S(=O)(Sc1ccc(Cl)cc1)c1ccc(Cl)cc1	9.79 µM (inactive)	17.5 µM (inactive)	16.5 µM (inactive)	12.4 µM (inactive)	11.6 µM (inactive)	13.6 µM (inactive)	15.5 µM (inactive)	19.1 µM (inactive)	3.84 µM (inactive)	7.16 µM (inactive)	11.2 µM (inactive)	12.2 µM (inactive)	18.2 µM (inactive)	19.3 µM (inactive)	17.6 µM (inactive)	10.3 µM (inactive)	22.6 µM (inactive)	16.7 µM (inactive)	–	–
C[C@]12CCc3nonc3C1CC[C@@H]1C2CC[C@]2(C)C(=O)/C(=N\O)CC12 (stereo partly drawn)	> 100 µM (inactive)	> 100 µM (inactive)	> 100 µM (inactive)	> 100 µM (inactive)	46 µM (inactive)	1.03 µM (active)	> 100 µM (inactive)	> 100 µM (inactive)	> 100 µM (inactive)	> 100 µM (inactive)	> 100 µM (inactive)	> 100 µM (inactive)	> 100 µM (inactive)	> 100 µM (inactive)	> 100 µM (inactive)	> 100 µM (inactive)	> 100 µM (inactive)	> 100 µM (inactive)	–	–
COC(=O)c1[nH]c(=S)[nH]c(=O)c1-c1ccc(Cl)cc1	> 50 µM (inactive)	> 50 µM (inactive)	> 50 µM (inactive)	> 50 µM (inactive)	> 50 µM (inactive)	> 50 µM (inactive)	> 50 µM (inactive)	> 12.2 µM (inactive)	> 50 µM (inactive)	> 50 µM (inactive)	> 50 µM (inactive)	> 50 µM (inactive)	> 50 µM (inactive)	> 50 µM (inactive)	> 50 µM (inactive)	> 50 µM (inactive)	> 50 µM (inactive)	> 50 µM (inactive)	–	–
CSc1nc(Nc2ccccc2Cl)c2c(N)nn(C)c2n1	> 100 µM (inactive)	> 100 µM (inactive)	> 100 µM (inactive)	> 100 µM (inactive)	16 µM (inactive)	–	> 100 µM (inactive)	> 100 µM (inactive)	> 100 µM (inactive)	77.8 µM (inactive)	> 100 µM (inactive)	> 100 µM (inactive)	> 100 µM (inactive)	> 100 µM (inactive)	> 100 µM (inactive)	> 100 µM (inactive)	> 100 µM (inactive)	> 100 µM (inactive)	> 100 µM (inactive)	–
COc1ccc(N2C(=O)/C(=C\c3cc(OC)c(OC)c(OC)c3)S(=O)(=O)C2c2ccccc2)cc1 (stereo not drawn)	28.5 µM (inactive)	19.4 µM (inactive)	50.7 µM (inactive)	> 100 µM (inactive)	20 µM (inactive)	–	27 µM (inactive)	84.7 µM (inactive)	8.55 µM (inactive)	52 µM (inactive)	14.8 µM (inactive)	21.2 µM (inactive)	–	18.5 µM (inactive)	89.3 µM (inactive)	11.3 µM (inactive)	12.2 µM (inactive)	30.8 µM (inactive)	–	30.2 µM (inactive)
